Data: the supplement of paper PMC13380429

How the values were obtained:
Settings in all cases: 72 h
Calu-3 [1] = assay: drug sensitivity score (DSS) for viability; higher = more toxic; extreme values may be limits of the assay
Vero E6 [2] = assay: as above
U2OS [3] = assay: as above
HepG2 [4] = assay: as above
Caco-2 [5] = assay: relative viability EC50 (midpoint between 100% and the lowest measured viability); higher = less toxic
U2OS [6] = assay: as above
HepG2 [7] = assay: as above
Caco-2 [8] = assay: cell viability relative to DMSO; higher = less toxic
U2OS [9] = assay: as above
HepG2 [10] = assay: as above
Caco-2 [11] = assay: drug sensitivity score (DSS) for viability; higher = more toxic; extreme values may be limits of the assay
Vero E6 [12] = assay: relative viability EC50 (midpoint between 100% and the lowest measured viability); higher = less toxic
Vero E6 [13] = assay: cell viability relative to DMSO; higher = less toxic
Calu-3 [14] = assay: as above

| Structure (SMILES) | drug sensitivity score (Calu-3 [1]) | drug sensitivity score (Vero E6 [2]) | drug sensitivity score (U2OS [3]) | drug sensitivity score (HepG2 [4]) | relative viability EC50 (Caco-2 [5]) [µM] | relative viability EC50 (U2OS [6]) [µM] | relative viability EC50 (HepG2 [7]) [µM] | cell viability (Caco-2 [8]; 1 nM) [%] | cell viability (Caco-2 [8]; 10 nM) [%] | cell viability (Caco-2 [8]; 100 nM) [%] | cell viability (Caco-2 [8]; 1000 nM) [%] | cell viability (Caco-2 [8]; 10000 nM) [%] | cell viability (U2OS [9]; 1 nM) [%] | cell viability (U2OS [9]; 10 nM) [%] | cell viability (U2OS [9]; 100 nM) [%] | cell viability (U2OS [9]; 1000 nM) [%] | cell viability (U2OS [9]; 10000 nM) [%] | cell viability (HepG2 [10]; 1 nM) [%] | cell viability (HepG2 [10]; 10 nM) [%] | cell viability (HepG2 [10]; 100 nM) [%] | cell viability (HepG2 [10]; 1000 nM) [%] | cell viability (HepG2 [10]; 10000 nM) [%] | drug sensitivity score (Caco-2 [11]) | relative viability EC50 (Vero E6 [12]) [µM] | cell viability (Vero E6 [13]; 1 nM) [%] | cell viability (Vero E6 [13]; 10 nM) [%] | cell viability (Vero E6 [13]; 100 nM) [%] | cell viability (Vero E6 [13]; 1000 nM) [%] | cell viability (Vero E6 [13]; 10000 nM) [%] | cell viability (Calu-3 [14]; 1 nM) [%] | cell viability (Calu-3 [14]; 10 nM) [%] | cell viability (Calu-3 [14]; 100 nM) [%] | cell viability (Calu-3 [14]; 1000 nM) [%] | cell viability (Calu-3 [14]; 10000 nM) [%] |
| --- | --- | --- | --- | --- | --- | --- | --- | --- | --- | --- | --- | --- | --- | --- | --- | --- | --- | --- | --- | --- | --- | --- | --- | --- | --- | --- | --- | --- | --- | --- | --- | --- | --- | --- |
| Nc1ccc(C(=O)Oc2ccccc2)c(O)c1 [phenyl-aminosalicylate] | 0 | 0 | 0 | 1 | – | – | – | – | – | – | – | – | – | – | – | – | – | – | – | – | – | – | – | – | – | – | – | – | – | – | – | – | – | – |
| CCOC(=O)OC(C)OC1=C(C(=O)Nc2ccccn2)N(C)S(=O)(=O)c2ccccc21 (stereo not given) [ampiroxicam] | – | – | 0 | 0 | > 10 | > 10 | > 10 | 94.6 | 99.9 | 86.5 | 96.9 | 97.3 | 97.2 | 102 | 93.9 | 98 | 95 | 91.9 | 102 | 101 | 101 | 103 | 0 | – | – | – | – | – | – | – | – | – | – | – |
| Nc1nc(=O)c(Br)c(-c2ccccc2)[nH]1 [bropirimine] | – | 0 | 0 | 0 | > 10 | > 10 | > 10 | 96.6 | 91.4 | 102 | 87.8 | 112 | 92.8 | 95.1 | 102 | 95.7 | 104 | 102 | 118 | 92.4 | 103 | 114 | 0 | > 10 | 94.8 | 98.3 | 92.4 | 98.7 | 102 | – | – | – | – | – |
| CCC(CC)Nc1nc(C)c(-c2ccc(OC(F)(F)F)cc2OC)nc1OC [NGD-98-2] | – | 0 | 0 | 0 | > 10 | > 10 | > 10 | 94.8 | 92.9 | 96.3 | 90.9 | 81.6 | 98.7 | 98.5 | 95.1 | 99.3 | 97.7 | 102 | 98.8 | 90.8 | 100 | 96.3 | 0.6 | > 10 | 99.9 | 104 | 100 | 99.1 | 99.2 | – | – | – | – | – |
| COC(=O)c1cc(OC)c2c(c1-c1c(CO)cc(OC)c3c1OCO3)OCO2 [bicyclol] | – | 0 | 0 | 0 | > 10 | > 10 | > 10 | 89.9 | 98.7 | 104 | 101 | 101 | 101 | 97.6 | 97.8 | 98.2 | 94.8 | 90.5 | 97.8 | 92.1 | 108 | 100 | 0 | > 10 | 108 | 105 | 104 | 99.9 | 100 | – | – | – | – | – |
| O=S(=O)(c1cccc2c(O)nccc12)N1CCCNCC1 [hydroxyfasudil] | 0 | 0 | 0 | 0 | – | – | – | 98.7 | 99.3 | 94 | 107 | 109 | 95.4 | 101 | 96.4 | – | 102 | 96.6 | 97.7 | – | 97.7 | 98.3 | 0 | – | 95.7 | 95.8 | 96.4 | 90.3 | 107 | 91.6 | 94.1 | 110 | 119 | 136 |
| CSc1nc2ccc3nc(NC(=O)C(c4ccccc4)c4ccccc4)sc3c2s1 [Gue-1654] | – | 0 | 0 | 0 | > 10 | > 10 | > 10 | 100 | 100 | 94.7 | 93.6 | 80.5 | 100 | 95.9 | 98.8 | 97.1 | 98.2 | 96.4 | 106 | 98.3 | 102 | 92.6 | 0.7 | > 10 | 104 | 107 | 99.6 | 97.8 | 105 | – | – | – | – | – |
